Here are results for 17 compounds from patent US8263044B2, “Stilbene like compounds as novel HDAC inhibitors” (Orchid Research Laboratories Limited, priority 2005, dated 2012).

One series has as its system HCT 116 cells. Briefly: cells. The settings on record: Homo sapiens, HCT-116, 48 h; for GI50: read-out: HCT116 GI50; for CC50: read-out: HCT116 LC50.
Series [1] concerns MDAMB231/U251. In words: cells. The settings on record: 48 h, read-out: MDAMB231/U251 GI50.
A further series has as its system NCIH 460 cells. Briefly: cells. To be noted: Homo sapiens, NCI-H460, 48 h; for GI50: read-out: NCIH460 GI50; for CC50: read-out: NCIH460 LC50.
In series [2] the test system is NCIH460, HCT116, MDAMB231/U251. Briefly: Anti-cancer screen, mean GI50 over the cell lines. It counts as cell-based. The settings on record: mean over the three cell lines; no unit in table.
For series [3], the system named is HDAC activity (Mouse Liver Extract). Briefly: Histone Deacetylase (HDAC) Inhibition Assay using Boc-Lys (Ac)-AMC Substrate. The settings on record: mouse liver enzyme; for HDAC Inhibition 1 μM: inhibitor at 1 μM; for HDAC Inhibition 1 μM / HDAC Inhibition 10 μM: in % (unit assumed); for HDAC Inhibition 10 μM: inhibitor at 10 μM. It is filed as biochemical. A digest of the protocol: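 Mouse liver extract (diluted 1:6) was preincubated with inhibitor for 5 min at 30° C, then reacted with Boc-Lys(Ac)-AMC for 30 min at 30° C. Trypsin stop solution was added for 20–30 min to release AMC, read by fluorescence at ex 360/365 nm and em 440/460 nm with buffer-plus-substrate blank subtracted.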

Series [4] has as its system MDAMB231/U251. Briefly: cells. The settings on record: 48 h, read-out: MDAMB231/U251 LC50.

With `Cc1ncsc1C=C(C(=O)NCCCCCC(=O)NO)c1ccc(Cl)cc1` (stereo in doubt) [Example 12, (2Z)-3-(4-Methyl-1,3-thiazol-5-yl)-2-(4-chlorophenyl)-N-[6-(hydroxyamino)-6-oxohexyl]acrylamide], the melting point – broadly, the temperature, or range, at which the solid turns liquid – was in the range of 78.5 to 79 °C.

In turn, `O=C(CCCCCNC(=O)/C(=C\c1ccc(F)c(Cl)c1)c1ccc(F)cc1)NO` [Example 10, (2Z)-3-(3-Chloro,4-fluorophenyl)-2-(4-fluorophenyl)-N-[6-(hydroxyamino)-6-oxohexyl]acrylamide] showed a melting point of 163.8 to 164.3 °C.

On to `COc1cc(/C=C(\C(=O)NCCCCCC(=O)NO)c2ccc(O)cc2)cc(OC)c1` [Example 11, (2Z)-3-(3,5-dimethoxyphenyl)-2-(4-hydroxyphenyl)-N-[6-(hydroxyamino)-6-oxohexyl]acrylamide], for which the melting point lay in the range of 144.1 to 144.6 °C.

For `O=C(CCCCCNC(=O)/C(=C\c1ccc(F)c(F)c1)c1ccc(F)cc1)NO` [Example 21], the melting point lay within 135.8 to 139.4 °C.

With `O=C(CCCCCNC(=O)/C(=C\c1ccc(F)c(C(F)(F)F)c1)c1ccc(C(F)(F)F)cc1)NO` [Example 22, (2Z)-3-(4-Fluoro-3-trifluoromethyl-phenyl)-2-(4-trifluoromethylphenyl)-N-[6-(hydroxyamino)-6-oxohexyl]acrylamide], the melting point was in the range of 95.1 to 103.6 °C.

As for `COc1cc(/C=C(\C(=O)NCCCCCC(=O)NOCc2ccccc2)c2ccc(F)cc2)cc(OC)c1` [Example 33], the melting point is 79.9 to 86.7 °C.

Turning to `COc1ccc(/C(=C/c2c(F)ccc(F)c2F)C(=O)NCCCCCC(=O)NO)cc1` [Example 40, (2Z)-3-(2,3,6-Trifluorophenyl)-2-(4-methoxyphenyl)-N-[6-(hydroxyamino)-6-oxohexyl]acrylamide], the GI50 in the series with HCT 116 cells came to 5.8 µM; in the series with MDAMB231/U251 [1] it was 1 µM; with NCIH 460 cells it was 3 µM; in series [2] it was 3.27 µM. Moreover, the values for the CC50 in the series on HCT 116 cells, in the series with NCIH 460 cells and with MDAMB231/U251 [4] were greater than 100 µM, greater than 100 µM and 80 µM, respectively. In addition, in series [3], the “HDAC Inhibition 1 μM” value was 79.97. For the same compound, the “HDAC Inhibition 10 μM” value in series [3] is 96.16.

Consider `CSc1ccc(/C=C(\C(=O)NCCCCCC(=O)NO)c2ccc([N+](=O)[O-])cc2)cc1` [Example 41, (2Z)-3-(4-Thiomethylphenyl)-2-(4-nitrophenyl)-N-[6-(hydroxyamino)-6-oxohexyl]acrylamide], for which the GI50 was 6 µM in the series on HCT 116 cells, 9 µM with MDAMB231/U251 [1], 15 µM with NCIH 460 cells and 10 µM in series [2]. Moreover, the CC50 was determined as 90 µM with HCT 116 cells, 94 µM in the series with NCIH 460 cells and 90 µM in the series with MDAMB231/U251 [4]. For the same compound, in series [3], the “HDAC Inhibition 1 μM” value is recorded as 68.69. Also, in series [3], the “HDAC Inhibition 10 μM” value is 92.83.

Consider `O=C(CCCCCNC(=O)/C(=C\c1ccc(F)c(Cl)c1)c1ccc(O)cc1)NO` [Example 42, (2Z)-3-(3-Chloro-4-fluorophenyl)-2-(4-hydroxyphenyl)-N-[6-(hydroxyamino)-6-oxohexyl]acrylamide], for which the melting point was in the range of 100.3 to 103.9 °C.

For the compound `CSc1ccc(/C=C(\C(=O)NCCCCCC(=O)NO)c2cccs2)cc1` [Example 43, (2Z)-3-(4-Thiomethylphenyl)-2-(thiophene-2-yl)-N-[6-(hydroxyamino)-6-oxohexyl]acrylamide], the GI50 with HCT 116 cells turned out to be 5 µM; in the series with MDAMB231/U251 [1], 0.05 µM; with NCIH 460 cells, 10 µM; in series [2], 5.02 µM. Besides, the CC50 in the series with HCT 116 cells is 70 µM; in the series with NCIH 460 cells it was greater than 100 µM; with MDAMB231/U251 [4], 75 µM. For the same compound, the “HDAC Inhibition 1 μM” value in series [3] turned out to be 89.26. Also, the “HDAC Inhibition 10 μM” value in series [3] came out at 100. Further, in series [3], the midpoint of inhibition, the IC50, lay at 0.26 µM.

In turn, `O=C(CCCCCNC(=O)/C(=C\c1ccc(Cl)s1)c1ccc(F)cc1)NO` [Example 44, (2Z)-3-(5-Chlorothiophen-2-yl)-2-(4-fluorophenyl)-N-[6-(hydroxyamino)-6-oxohexyl]acrylamide] yielded a melting point of 181 to 185.2 °C.

On to `COc1cc(/C=C(\C(=O)NCCCCCC(=O)NO)c2ccc(F)cc2)ccc1O` [Example 46, (2Z)-3-(4-Hydroxy-3-methoxyphenyl)-2-(4-fluorophenyl)-N-[6-(hydroxyamino)-6-oxohexyl]acrylamide], for which the GI50 in the series on HCT 116 cells stood at 7 µM; in the series with MDAMB231/U251 [1], 3.5 µM; in the series on NCIH 460 cells it was 5 µM; in series [2], 5 µM. The CC50 in the series on HCT 116 cells, in the series on NCIH 460 cells and with MDAMB231/U251 [4] was greater than 100 µM each time. Further, the “HDAC Inhibition 1 μM” value in series [3] was determined as 60.53. The “HDAC Inhibition 10 μM” value in series [3] stood at 70.82.

For the compound `O=C(CCCCCNC(=O)/C(=C\c1ccc(C(F)(F)F)cc1)c1ccc(F)cc1)NO` [Example 47, (2Z)-3-(4-Trifluoromethylphenyl)-2-(4-fluorophenyl)-N-[6-(hydroxyamino)-6-oxohexyl]acrylamide], the GI50 in the series with HCT 116 cells was found to be 9 µM; in the series on MDAMB231/U251 [1], 7.5 µM; in the series on NCIH 460 cells, 13 µM; in series [2] it was 9.8 µM. Further, the CC50 in the series with HCT 116 cells is 95 µM; in the series on NCIH 460 cells, 98 µM; in the series with MDAMB231/U251 [4] it was greater than 100 µM. The “HDAC Inhibition 1 μM” value in series [3] is reported as 49.92. In addition, the “HDAC Inhibition 10 μM” value in series [3] is listed as 87.19.

Compound `COc1cc(/C=C(\C(=O)NCCCCCC(=O)NO)c2ccc(F)cc2)cc(OC)c1OC` [Example 48, (2Z)-3-(3,4,5-Trimethoxyphenyl)-2-(4 fluorophenyl)-N-[6-(hydroxyamino)-6-oxohexyl]acrylamide] showed a melting point of 153 to 157 °C.

On to `CC(=O)N(O)C(=O)CCCCCNC(=O)/C(=C\c1ccc(Cl)o1)c1ccc(F)cc1` [Example 53, N-Acetyl-6-{[(2Z)-3-(5-chloro-2-furyl)-2-(4-fluorophenyl)-acrylamide]}-N-hydroxyhexanamide], for which the GI50 in the series with HCT 116 cells was determined as 5 µM; with MDAMB231/U251 [1], 5 µM; in the series with NCIH 460 cells it was 13 µM; in series [2] it was 7.7 µM. Besides, the CC50 with HCT 116 cells is 65 µM; in the series on NCIH 460 cells, 75 µM; in the series on MDAMB231/U251 [4] it was 70 µM. In addition, in series [3], the “HDAC Inhibition 1 μM” value turned out to be 69.80. Also, in series [3], the “HDAC Inhibition 10 μM” value is 95.25. The IC50 (as a rule, the concentration at which inhibition is half-maximal) in series [3] worked out at 0.06 µM.

For `CSc1ccc(/C=C(\C(=O)NCCCCCC(=O)NC(Cc2ccc(O)cc2)C(=O)NO)c2ccc(F)cc2)cc1` (stereo not shown) [Example 54], the melting point is 142.1 to 145.4 °C.

Compound `COc1c(F)c(F)c(/C(=C/c2ccc(F)cc2)C(=O)NCCCCCC(=O)NC(Cc2ccc(O)cc2)C(=O)NO)c(F)c1F` (stereo not shown) [Example 56] gave a melting point of 162.4 to 165.2 °C.
